Experimental data published in the NIST ThermoML archive (doi:10.1021/acs.jced.7b00937).
Numbers after ± are expanded uncertainties.

Experiment: mn = molality of the nth substance listed, in mol/kg
Conditions: 100 kPa, Liquid, Capillary tube (Ostwald / Ubbelohde) method

viscosity (288.15 K, m1 = 0.05) [mPa·s]	viscosity (288.15 K, m1 = 0.15) [mPa·s]	viscosity (288.15 K, m1 = 0.25) [mPa·s]	viscosity (288.15 K, m1 = 0.35) [mPa·s]	viscosity (298.15 K, m1 = 0.05) [mPa·s]	viscosity (298.15 K, m1 = 0.15) [mPa·s]	viscosity (298.15 K, m1 = 0.25) [mPa·s]	viscosity (298.15 K, m1 = 0.35) [mPa·s]	viscosity (308.15 K, m1 = 0.05) [mPa·s]	viscosity (308.15 K, m1 = 0.15) [mPa·s]	viscosity (308.15 K, m1 = 0.25) [mPa·s]	viscosity (308.15 K, m1 = 0.35) [mPa·s]	viscosity (318.15 K, m1 = 0.05) [mPa·s]	viscosity (318.15 K, m1 = 0.15) [mPa·s]	viscosity (318.15 K, m1 = 0.25) [mPa·s]	viscosity (318.15 K, m1 = 0.35) [mPa·s]	Compound
1.16 ± 0.021	1.209 ± 0.021	1.256 ± 0.021	1.304 ± 0.021	0.912 ± 0.021	0.944 ± 0.021	0.982 ± 0.021	1.019 ± 0.021	0.736 ± 0.02	0.761 ± 0.021	0.791 ± 0.021	0.82 ± 0.021	0.607 ± 0.02	0.634 ± 0.02	0.656 ± 0.02	0.68 ± 0.02	Cc1ncc(CO)c(CO)c1O.Cl [5-hydroxy-6-methyl-3,4-pyridinedimethanol hydrochloride] + O
1.179 ± 0.021	1.27 ± 0.021	1.368 ± 0.021	1.473 ± 0.022	0.917 ± 0.021	0.986 ± 0.021	1.059 ± 0.021	1.146 ± 0.021	0.748 ± 0.021	0.803 ± 0.021	0.851 ± 0.021	0.91 ± 0.021	0.615 ± 0.02	0.658 ± 0.02	0.703 ± 0.02	0.749 ± 0.021	Cc1ncc(C[n+]2csc(CCO)c2C)c(N)n1.Cl.[Cl-] [thiamine hydrochloride] + O
